The values that follow come from ChEMBL document CHEMBL1153696, “Hypoglycemic polysaccharides from the tuberous root of Liriope spicata” (2009).

The subject of assay [1] is Mus musculus. The assay can be described thus: Antidiabetic activity in BALB/c mouse type 2 diabetic model assessed as reduction of fasting blood glucose level at 200 mg/kg, po QD measured after 1 week by glucometry (Rvb=14.89 +/- 1.37 mmol/L). It counts as functional.
The test system of assay [2] is Mus musculus. Description: Antidiabetic activity in BALB/c mouse type 2 diabetic model assessed as reduction of fasting blood glucose level at 100 mg/kg, po QD measured after 1 week by glucometry (Rvb=14.89 +/- 1.37 mmol/L). It counts as functional.
For assay [3], the system named is Mus musculus. The assay can be described thus: Antidiabetic activity in BALB/c mouse type 2 diabetic model assessed as reduction of fasting blood glucose level at 200 mg/kg, po QD measured after 2 weeks by glucometry (Rvb=14.86 +/- 1.58 mmol/L). It counts as functional.
Assay [4] has as its system Mus musculus. Description: Antidiabetic activity in BALB/c mouse type 2 diabetic model assessed as reduction of fasting blood glucose level at 100 mg/kg, po QD measured after 2 weeks by glucometry (Rvb=14.86 +/- 1.58 mmol/L). It counts as functional.
Assay [5] has as its system Mus musculus. The assay can be described thus: Antidiabetic activity in BALB/c mouse type 2 diabetic model assessed as reduction of fasting blood glucose level at 200 mg/kg, po QD measured after 3 weeks by glucometry (Rvb=14.89 +/- 1.42 mmol/L). It counts as functional.
Assay [6] relates to Mus musculus. Description: Antidiabetic activity in BALB/c mouse type 2 diabetic model assessed as reduction of fasting blood glucose level at 100 mg/kg, po QD measured after 3 weeks by glucometry (Rvb=14.89 +/- 1.42 mmol/L). It counts as functional.
Assay [7] concerns Mus musculus. Description: Antidiabetic activity in BALB/c mouse type 2 diabetic model assessed as reduction of fasting blood glucose level at 200 mg/kg, po QD measured after 4 weeks by glucometry (Rvb=15.03 +/- 1.47 mmol/L). It counts as functional.
Assay [8] relates to Mus musculus. The assay can be described thus: Antidiabetic activity in BALB/c mouse type 2 diabetic model assessed as reduction of fasting blood glucose level at 100 mg/kg, po QD measured after 4 weeks by glucometry (Rvb=15.03 +/- 1.47 mmol/L). It counts as functional.
Assay [9] deals with Mus musculus. The assay can be described thus: Hypoglycemic effect in type 2 diabetic BALB/c mouse model assessed as reduction in blood glucose excursion at 100 to 200 mg/kg, po pretreated 60 mins before glucose challenge measured up to 3 hrs by one-touch glucometer relative to diabetic control. It counts as functional, organism-based.
Assay [10] relates to Mus musculus. Description: Hypoglycemic effect in type 2 diabetic BALB/c mouse model assessed as reduction in blood glucose excursion at 2 mg/kg, po pretreated 60 mins before glucose challenge measured up to 3 hrs by one-touch glucometer relative to diabetic control. It counts as functional, organism-based. Set-up: dose 2 mg/kg.
Assay [11] concerns Mus musculus. The assay can be described thus: Antidiabetic activity in BALB/c mouse type 2 diabetic model assessed as reduction of fasting blood glucose level at 2 mg/kg, po QD measured after 1 week by glucometry (Rvb=14.89 +/- 1.37 mmol/L). It counts as functional.
Assay [12] has as its system Mus musculus. Description: Antidiabetic activity in BALB/c mouse type 2 diabetic model assessed as reduction of fasting blood glucose level at 2 mg/kg, po QD measured after 2 weeks by glucometry (Rvb=14.86 +/- 1.58 mmol/L). It counts as functional.
Assay [13] relates to Mus musculus. Description: Antidiabetic activity in BALB/c mouse type 2 diabetic model assessed as reduction of fasting blood glucose level at 2 mg/kg, po QD measured after 3 weeks by glucometry (Rvb=14.89 +/- 1.42 mmol/L). It counts as functional.
Assay [14] relates to Mus musculus. Description: Antidiabetic activity in BALB/c mouse type 2 diabetic model assessed as reduction of fasting blood glucose level at 2 mg/kg, po QD measured after 4 weeks by glucometry (Rvb=15.03 +/- 1.47 mmol/L). It counts as functional.

The source made the active and inactive calls. The rule behind the calls is not given here.

Regarding `OC[C@H]1O[C@@](CO)(OC[C@H]2O[C@@](CO[C@]3(CO[C@]4(CO)O[C@H](CO)[C@@H](O)[C@@H]4O)O[C@H](CO)[C@@H](O)[C@@H]3O)(OC[C@@]3(OC[C@@]4(OC[C@@]5(OC[C@@]6(OC[C@@]7(OC[C@@]8(OC[C@@]9(OC[C@@]%10(OC[C@@]%11(OC[C@@]%12(OC[C@@]%13(OC[C@@]%14(OC[C@@]%15(OC[C@@]%16(OC[C@@]%17(OC[C@@]%18(O[C@@H]%19O[C@H](CO)[C@@H](O)[C@H](O)[C@H]%19O)O[C@H](CO)[C@@H](O)[C@@H]%18O)O[C@H](CO[C@]%18(CO)O[C@H](CO)[C@@H](O)[C@@H]%18O)[C@@H](O)[C@@H]%17O)O[C@H](CO)[C@@H](O)[C@@H]%16O)O[C@H](CO)[C@@H](O)[C@@H]%15O)O[C@H](CO[C@]%15(CO)O[C@H](CO)[C@@H](O)[C@@H]%15O)[C@@H](O)[C@@H]%14O)O[C@H](CO)[C@@H](O)[C@@H]%13O)O[C@H](CO)[C@@H](O)[C@@H]%12O)O[C@H](CO[C@]%12(CO)O[C@H](CO)[C@@H](O)[C@@H]%12O)[C@@H](O)[C@@H]%11O)O[C@H](CO)[C@@H](O)[C@@H]%10O)O[C@H](CO)[C@@H](O)[C@@H]9O)O[C@H](CO[C@]9(CO)O[C@H](CO)[C@@H](O)[C@@H]9O)[C@@H](O)[C@@H]8O)O[C@H](CO)[C@@H](O)[C@@H]7O)O[C@H](CO)[C@@H](O)[C@@H]6O)O[C@H](CO[C@]6(CO)O[C@H](CO)[C@@H](O)[C@@H]6O)[C@@H](O)[C@@H]5O)O[C@H](CO)[C@@H](O)[C@@H]4O)O[C@H](CO)[C@@H](O)[C@@H]3O)[C@@H](O)[C@@H]2O)[C@@H](O)[C@@H]1O`, the Activity in assay [1] amounted to 8.65 mmol/L; in assay [2], 10.04 mmol/L; in assay [3], 6.16 mmol/L; in assay [4], 7.05 mmol/L; in assay [5], 5.14 mmol/L; in assay [6], 4.7 mmol/L. Besides, the Activity in assay [7] is given as 4.78 mmol/L; in [8], 4.63 mmol/L. In addition, the outcome in assay [9] and in assay [10] was Active.
With `CN(CCOc1ccc(CC2SC(=O)NC2=O)cc1)c1ccccn1` (stereo unspecified) [ROSIGLITAZONE], the Activity amounted to 9.58 mmol/L in assay [11], 5.54 mmol/L in [12], 5.04 mmol/L in assay [13] and 4.94 mmol/L in assay [14]. Further, the result in [9] and in assay [10] was Active.
`OC[C@H]1OC(CO)(OC[C@H]2O[C@@](CO[C@]3(CO[C@]4(CO[C@]5(CO[C@]6(CO[C@]7(CO)O[C@H](CO)[C@@H](O)[C@@H]7O)O[C@H](CO[C@]7(CO)O[C@H](CO)[C@@H](O)[C@@H]7O)[C@@H](O)[C@@H]6O)O[C@H](CO)[C@@H](O)[C@@H]5O)O[C@H](CO[C@]5(CO)O[C@H](CO)[C@@H](O)[C@@H]5O)[C@@H](O)[C@@H]4O)O[C@H](CO)[C@@H](O)[C@@H]3O)(OC[C@@]3(OC[C@@]4(OC[C@@]5(OC[C@@]6(OC[C@@]7(OC[C@@]8(OC[C@@]9(O[C@@H]%10O[C@H](CO)[C@@H](O)[C@H](O)[C@H]%10O)O[C@H](CO)[C@@H](O)[C@@H]9O)O[C@H](CO[C@]9(CO)O[C@H](CO)[C@@H](O)[C@@H]9O)[C@@H](O)[C@@H]8O)O[C@H](CO)[C@@H](O)[C@@H]7O)O[C@H](CO[C@]7(CO)O[C@H](CO)[C@@H](O)[C@@H]7O)[C@@H](O)[C@@H]6O)O[C@H](CO)[C@@H](O)[C@@H]5O)O[C@H](CO[C@]5(CO)O[C@H](CO)[C@@H](O)[C@@H]5O)[C@@H](O)[C@@H]4O)O[C@H](CO)[C@@H](O)[C@@H]3O)[C@@H](O)[C@@H]2O)[C@@H](O)[C@@H]1O` (stereo partly specified): the Activity amounted to 9.35 mmol/L in assay [1]; 9.71 mmol/L in assay [2]; 7.25 mmol/L in [3]; 7.96 mmol/L in assay [4]; 5.44 mmol/L in [5]; 4.83 mmol/L in [6]. Besides, the values for the Activity in assay [7] and in assay [8] were 4.83 mmol/L and 5.13 mmol/L, respectively. The outcome in [9] and in [10] was Active.
